In data set [1] the test system is SARS-CoV-2. Briefly: microbe, parasite or virus in culture. It counts as cell-based. To be noted: for protective effect against SARS-CoV-2 infectivity (in words): preincubation 2 h, crystal violet 72 h after infection; for inhibition at 100 µM: Severe acute respiratory syndrome coronavirus 2, Vero.
Data set [2] has as its system SARS-CoV-2. It counts as cell-based. To be noted: 100 µM, virus coincubated with compound before infecting VERO cells.
The subject of a further data set is VERO cells. Briefly: Cytotoxicity assay (XTT) on VERO cells. The format is cell-based, African green monkey. Conditions: 72 h, 100 µM. A general note: Tetrazolium dyes change colour on reduction, which living cells bring about.
Data set [3] is described as follows: Cytotoxicity assay (XTT) on VERO cells. The format is cell-based, African green monkey. To be noted: African green monkey.
Data set [4] has as its target recombinant human factor Xa (Homo sapiens, UniProt P00742). Briefly: Factor Xa inhibition assay (chromogenic substrate S-2765). The format is biochemical.
In another data set the target is bovine thrombin (Bos taurus, UniProt P00735). Briefly: Thrombin inhibition assay (chromogenic substrate S-2238). It counts as biochemical.
Data set [5] can be described thus: Stability in pooled human serum (RP-HPLC). It counts as in vitro ADME. To be noted: for residual, % of the starting concentration: human serum.
The nature of data set [6]: Stability in phosphate buffer solution pH 7.4 (RP-HPLC). Conditions: for residual, % of the starting concentration: pH 7.4 buffer. It counts as physicochemical.
Where [7] appears, read: Cheng-Prousoff from IC50, mean of three measurements, read-out: Enzyme Inhibition, Ki, Factor Xa.
Where [8] appears, read: Cheng-Prousoff from IC50, mean of three measurements, read-out: Enzyme Inhibition, Ki, Thrombin.
Where [9] appears, read: VERO cells, confluent monolayers (mock-infected), 72 h, XTT, read-out: VERO Cells Toxicity, CC50.

The structures appear in SMILES notation. Entries after “also recorded” stand apart in the source; their conditions may differ. Where a name gives a salt, the structure may show the parent alone. Read-outs that look alike come from different tables or passages of the source.

The values that follow come from publication PMC9415951 (Viruses, 2022).

Chain of recombinant human factor Xa (P00742 235-488 limits assumed): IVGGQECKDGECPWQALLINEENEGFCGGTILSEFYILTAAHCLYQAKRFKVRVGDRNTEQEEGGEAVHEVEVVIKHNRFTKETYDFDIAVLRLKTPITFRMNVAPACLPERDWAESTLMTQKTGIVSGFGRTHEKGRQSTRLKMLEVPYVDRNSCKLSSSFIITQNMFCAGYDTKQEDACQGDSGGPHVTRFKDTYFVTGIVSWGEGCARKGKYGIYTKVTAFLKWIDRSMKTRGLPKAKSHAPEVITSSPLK
Chain of recombinant human factor Xa (P00742 41-179 partner limits assumed): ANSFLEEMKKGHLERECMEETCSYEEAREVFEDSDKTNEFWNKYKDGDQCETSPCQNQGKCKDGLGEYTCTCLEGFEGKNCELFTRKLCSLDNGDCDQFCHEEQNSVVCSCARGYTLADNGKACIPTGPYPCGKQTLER

In general, CC50 refers to the concentration that lowers cell viability or growth by half. On to `N=C(N)N1CCC(C(=O)Nc2ccccc2OCc2cc(-c3ccc(Cl)s3)on2)CC1` [Compound 1], for which the “protective effect against SARS-CoV-2 infectivity (in words)” value (from here on “protective effect”) in the data set with SARS-CoV-2 [1] (100 µM) is given as “weak (nonsignificant) protective effect”. Besides, the “effect on SARS-CoV-2 infectivity (in words)” value with SARS-CoV-2 [2] is “did decrease viral infectivity”. Besides, in the data set with VERO cells (African green monkey), the “VERO Cells Toxicity, Cytotoxicity at 100 µM (% of nonviable cells)” value (“VERO Cells Toxicity … (% of nonviable cells)” for short) is reported as 20.3 ± 0.9%. In data set [3], this compound had a CC50 at 72 h of over 200000 nM. The Ki in data set [4] (setting [7]) was determined as 2 nM; at bovine thrombin (setting [8]), 6820 nM.
In the case of `CC(C)N1CCC(C(=O)Nc2ccccc2OCc2cc(-c3ccc(Cl)s3)on2)CC1` [Compound 2], in the data set with SARS-CoV-2 [1] (100 µM), the “protective effect” value is “did not show any ability to reduce the virus infectivity”. Besides, the “VERO Cells Toxicity … (% of nonviable cells)” value in the data set on VERO cells (African green monkey) was determined as 7.45 ± 0.24%. In data set [3], the CC50 at 72 h was over 200000 nM. Besides, the Ki in data set [4] (setting [7]) was 0.3 nM.
A word on the inhibition: it is how much of the control response was suppressed. Regarding `N=C(N)N1CCC(C(=O)Nc2cccc(OCc3cc(-c4ccc(Cl)s4)on3)c2)CC1` [Compound 3], the “residual, % of the starting concentration” value (shortened to “residual, %”) was 100% in data set [5] (0 h); 95.8±1.0% in data set [5] (1 h); 96.6±1.5% in data set [5] (4 h); 93.2±2.5% in data set [5] (12 h); 96.8±3.0% in data set [5] (24 h); 100% in data set [6] (0 h). The “residual, %” value was found to be 98.8±0.5% in data set [6] (1 h), 98.1±1.5% in data set [6] (4 h), 97.5±0.5% in data set [6] (12 h) and 97.9±1.0% in data set [6] (24 h). Moreover, the “hydrolytic degradation after 24 h” value in data set [5] (pooled blood human serum, 24 h) is on record as “less than 10%”; in data set [6] (PBS pH 7.4, 24 h) it was “less than 10%”. Further, the “protective effect” value in the data set on SARS-CoV-2 [1] (100 µM) is listed as “completely inhibited; also recorded: statistically significant protective effects; also recorded: totally block SARS-CoV-2 entry”. Moreover, the inhibition at 100 µM in the data set on SARS-CoV-2 [1] (read-out: inhibition of virus infectivity) stood at 100%. Moreover, in the data set with SARS-CoV-2 [1] (lower concentrations 3–50 µM, preincubation, VERO cells), the “inhibitory effects on SARS-CoV-2 infection” value is “ca. 30%”. Besides, in the data set on SARS-CoV-2 [2], the “effect on SARS-CoV-2 infectivity (in words)” value was “did decrease viral infectivity; also recorded: best candidate against the viral infection”. For the same compound, the CC50 at 72 h in data set [3] (72 h, XTT, read-out: VERO Cells Toxicity, CC50) amounted to 155000 ± 16000 nM. Moreover, the Ki in data set [4] (setting [7]) worked out at 15 nM; in data set [4] (Ki, factor Xa, time-dependent inhibition, incubation time 0 min), 20 ± 7 nM; in data set [4] (Ki, factor Xa, time-dependent inhibition, incubation time 15 min), 17 ± 8 nM. For the same compound, the “time dependence of inhibition constant” value at bovine thrombin (preincubation 0, 15, 30 min) is “did not show any significant time-dependent change in inhibition constant”.
On to `[H]/N=C(/N)c1ccc(NCc2nc3cc(C(=O)N(CCC(=O)O)c4ccccn4)ccc3n2C)cc1` [Dabigatran, dabigatran], for which, in the data set with SARS-CoV-2 [1] (100 µM), the “protective effect” value is “did not show any effect; also recorded: did not show any ability to reduce the virus infectivity”. The “VERO Cells Toxicity … (% of nonviable cells)” value in the data set with VERO cells (XTT, mock-infected VERO cells) was found to be 18.3 ± 0.8%. In addition, the cytotoxic concentration (CC50) at 72 h in data set [3] (setting [9]) is over 200000 nM. The “inhibition mechanism, fXa” value in data set [4] (time-dependent inhibition) is on record as “reversible inhibitors”. In addition, the “inhibition mechanism, thrombin” value against bovine thrombin is recorded as “reversible inhibitors”.
Usually half-life stands for the time in which the quantity being followed falls by half. As for `N=C(N)c1ccc2cc(OC(=O)c3ccc(N=C(N)N)cc3)ccc2c1` [Nafamostat, Nafamostat mesylate], the “residual, %” value in data set [5] (0 h) came out at 100%; in data set [5] (0.5 h) it was 45.9±4.3%; in data set [5] (1 h), 21.2±5.2%; in data set [5] (2 h) it was 5.1±3.3%; in data set [6] (0 h) it was 100%; in data set [6] (0.5 h), 95.1±0.5%. Besides, the “residual, %” value turned out to be 87.6±1.2% in data set [6] (1 h); 84.9±1.0% in data set [6] (2 h); 81.6±1.8% in data set [6] (4 h); 78.4±2.5% in data set [6] (8 h); 73.8±3.0% in data set [6] (12 h); 61.4±2.8% in data set [6] (24 h). For the same compound, the half-life at 100 µM was 0.267 h in data set [5] (pooled human serum, 37 °C, read-out: half-life in human pooled blood serum) and about 45 h in data set [6] (phosphate buffer solution (PBS), PBS pH 7.4, 37 °C). The “protective effect” value with SARS-CoV-2 [1] (100 µM) is listed as “did not achieve statistically significant activity”; in the data set on SARS-CoV-2 [1] (100 µM, listed as NAF), “weak (nonsignificant) protective effect”. The cellular monolayer preserved result in the data set with SARS-CoV-2 [1] (100 µM, preincubation, crystal violet staining) is reported as “around 60%”. Also, the “cells with SARS-CoV-2 detected” value with SARS-CoV-2 [1] (100 µM, preincubation, immunofluorescence) is recorded as ~ 25%. In the data set with SARS-CoV-2 [1] (3–100 µM, preincubation), the “activity against SARS-CoV-2 infection over scalar concentrations (in words)” value is reported as “not to have statistically significant activity”. Further, the inhibition at 100 µM with SARS-CoV-2 [1] (read-out: reduction of viral entry (inhibition)) was about 20%. For the same compound, the “inhibition of SARS-CoV-2 infection” value in the data set with SARS-CoV-2 [1] (whole range of test concentrations 3–100 µM, VERO cells) is listed as 15–20%. Moreover, in the data set on VERO cells (XTT, mock-infected VERO cells), the “VERO Cells Toxicity … (% of nonviable cells)” value is reported as 16.0 ± 0.8%. For the same compound, in data set [3] (setting [9]), the CC50 at 72 h is over 200000 nM. Further, the Ki in data set [4] (incubation time 0 min, read-out: Ki, factor Xa, time-dependent inhibition) was found to be 363 ± 6 nM; in data set [4] (incubation time 15 min, read-out: Ki, factor Xa, time-dependent inhibition), 340 ± 10 nM; in data set [4] (incubation time 30 min, read-out: Ki, factor Xa, time-dependent inhibition), 225 ± 9 nM; at bovine thrombin (setting [8]), 10 nM; at bovine thrombin (incubation time 0 min, read-out: Ki, thrombin, time-dependent inhibition), 77 nM; on bovine thrombin (incubation time 15 min, read-out: Ki, thrombin, time-dependent inhibition), 13 nM. Further, the Ki at bovine thrombin (incubation time 30 min, read-out: Ki, thrombin, time-dependent inhibition) amounted to 5 nM. Besides, the “inhibition mechanism, fXa” value in data set [4] (time-dependent inhibition) is recorded as “covalent inhibitor”. Further, the “inhibition mechanism, thrombin” value against bovine thrombin (time-dependent inhibition) is reported as “covalent inhibitor”.
For the compound `O=C(NC[C@H]1CN(c2ccc(N3CCOCC3=O)cc2)C(=O)O1)c1ccc(Cl)s1` [Rivaroxaban, rivaroxaban], in the data set with SARS-CoV-2 [1] (100 µM), the “protective effect” value was “did not show any effect; also recorded: did not show any ability to reduce the virus infectivity”. The “VERO Cells Toxicity … (% of nonviable cells)” value in the data set with VERO cells (XTT, mock-infected VERO cells) came to 29.4 ± 0.8%. Besides, the 50% cytotoxic concentration (CC50) at 72 h in data set [3] (setting [9]) is over 200000 nM. Also, in data set [4] (time-dependent inhibition), the “inhibition mechanism, fXa” value is given as “reversible inhibitors”. The compound further yielded a Ki at bovine thrombin of 12000 nM. The “inhibition mechanism, thrombin” value against bovine thrombin (time-dependent inhibition) was “reversible inhibitors”.
